“And” between values parts separate entries of the source, which are not always exact repeats. Equal values may be shown once.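 1) Cells in 96-well plates. 2) Compound, 48 h, 5 concentrations. 3) Linear interpolation between surrounding doses. 4) Unreached endpoint = highest concentration. At the GI50, growth is halved. TGI: concentration producing complete growth inhibition.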
Columns and labels:
Experiment in all cases: inhibition of tumour cell growth, NCI panel, 48 h
786-0 renal = tested on: 786-0 renal
HOP-92 NSCLC = tested on: HOP-92 NSCLC
LOX IMVI melanoma = tested on: LOX IMVI melanoma
NCI-H23 lung = tested on: NCI-H23 lung
OVCAR-4 ovarian = tested on: OVCAR-4 ovarian
OVCAR-8 ovarian = tested on: OVCAR-8 ovarian
PC-3 prostate = tested on: PC-3 prostate
SK-MEL-2 melanoma = tested on: SK-MEL-2 melanoma

| SMILES | GI50 (786-0 renal) | TGI (786-0 renal) | GI50 (HOP-92 NSCLC) | TGI (HOP-92 NSCLC) | GI50 (LOX IMVI melanoma) | TGI (LOX IMVI melanoma) | GI50 (NCI-H23 lung) | TGI (NCI-H23 lung) | GI50 (OVCAR-4 ovarian) | TGI (OVCAR-4 ovarian) | GI50 (OVCAR-8 ovarian) | TGI (OVCAR-8 ovarian) | GI50 (PC-3 prostate) | TGI (PC-3 prostate) | GI50 (SK-MEL-2 melanoma) | TGI (SK-MEL-2 melanoma) |
| --- | --- | --- | --- | --- | --- | --- | --- | --- | --- | --- | --- | --- | --- | --- | --- | --- |
| COc1ccc(C(=O)c2cc(OC)c(OC)c(OC)c2)cc1/C=C/C(=O)c1ccc(O)cc1 | 1.66 µM | 3.74 µM | 1.21 µM | 3.31 µM | 1.75 µM | 3.9 µM | 2.93 µM | 10.2 µM | 2.73 µM | 58.4 µM | 4.48 µM | > 100 µM | 1.69 µM | 4.71 µM | 5.01 µM | 26.5 µM |
| Clc1ccc(Nc2ccnc(NCCNc3ccnc4cc(Cl)ccc34)n2)cc1 | 1.62 µM | 3.44 µM | 0.126 µM | 2 µM | 1.29 µM | 2.62 µM | 1.44 µM | 2.91 µM | 1.03 µM | 2.31 µM | 1.59 µM | 3.37 µM | 1.19 µM | 3.15 µM | 1.96 µM | 3.5 µM |
| OCc1ccc(N(Cc2ccc(F)cc2)C2CCC2)cc1Cl | 10.3 µM | 24.3 µM | 0.3 µM | 6.69 µM | 15.1 µM | 29.3 µM | 9.41 µM | 25.4 µM | 0.207 µM | 2.69 µM | 13.4 µM | 29.1 µM | 11.9 µM | 24.8 µM | 4.89 µM | 20.1 µM |
| O=C1NC(=O)C2=C1CCC2O (configuration not stated) |  | > 100 µM |  | > 100 µM |  | > 100 µM |  | > 100 µM |  | > 100 µM |  | > 100 µM |  | > 100 µM |  | > 100 µM |
| COc1ccc(-c2nc3sccn3c2/C=C/C(=O)c2cc(OC)c(OC)c(OC)c2)cc1OC | 3.36 µM | 20.4 µM |  |  | 2.6 µM | 10 µM | 2.16 µM | 5.89 µM | 2.85 µM | 77.2 µM | 2.47 µM | 7.15 µM | 2.21 µM | 6.96 µM | 1.87 µM | 4.65 µM |
| COc1ccc2c(CN3CCC(CO)CC3)cc3cc4c(cc3c2c1)OCO4 | 0.227 µM | 4.65 µM | 0.0911 µM | 0.633 µM | 0.144 µM | 0.49 µM | 0.298 µM | 1.5 µM | 0.438 µM | 11.4 µM | 0.0844 µM | 2.19 µM | 0.236 µM | 1.02 µM | 0.193 µM | 0.636 µM |
| O=C1C(Cl)=C(Oc2ccccc2)C(=O)c2ccccc21 | 15.6 µM | 29.1 µM | 1.8 µM | 4.56 µM | 9.98 µM | 22.7 µM | 9.49 µM | 24.5 µM | 2.58 µM | 7.22 µM | 14.3 µM | 36.8 µM | 4.34 µM | 20.9 µM | 6.56 µM | 19.4 µM |
| O=C(CSc1nc2ccc([N+](=O)[O-])cc2[nH]1)Nc1cccc(C(F)(F)F)c1 | 2.98 µM | 13.1 µM | 0.3 µM | 2.82 µM | 2.95 µM | 13 µM | 1.98 µM | 8.81 µM | 1.61 µM | 14.5 µM | 2.93 µM | 15.8 µM | 2.47 µM | 11.9 µM | 1.96 µM | 5.99 µM |
| C=C1C(=O)O[C@H]2[C@H]1CC/C(COC(=O)/C=C/c1cccnc1)=C\CC[C@@]1(C)O[C@@H]21 | 1.1 µM | 2.58 µM | 0.853 µM | 2.74 µM | 1.55 µM | 2.93 µM | 3.42 µM | 15.4 µM | 3.96 µM | 16.9 µM | 3.85 µM | 13.9 µM | 8.28 µM | 22.1 µM | 3.88 µM | 12.7 µM |
| COc1ccc(/C=C/C(=O)/C=C(/C=C/c2ccc(OC)c(OC)c2)OB(F)F)cc1OC | 1.07 µM | 2.93 µM | 1.71 µM | 4.89 µM | 0.808 µM | 2.19 µM | 1.33 µM | 4.17 µM | 1.86 µM | > 100 µM | 0.417 µM | > 100 µM | 1.05 µM | 7.51 µM | 1.81 µM | 4.39 µM |
| Nc1nc(SCC(=O)O)[nH]c(=O)c1N |  | > 100 µM |  | > 100 µM |  | 42.8 µM |  | > 100 µM |  | > 100 µM |  | > 100 µM |  | > 100 µM |  | > 100 µM |
| O=C(Nc1cccc(NS(=O)(=O)c2ccc(F)cc2)c1)c1ccc(-c2ccccc2)cc1 | 3.69 µM | > 100 µM | 1.93 µM | 8.22 µM | 2.54 µM | 6.99 µM | 2.83 µM | 10.5 µM | 3.72 µM | > 100 µM | 2.88 µM | 17.5 µM | 2.81 µM | 32.6 µM | 2.42 µM | 7.88 µM |
| O=C1NC(=O)[C@@H](c2cn3c4c(cccc24)CCC3)[C@@H]1c1c[nH]c2ccccc12 | 0.544 µM and 0.809 µM | > 10 µM and 18.8 µM | 0.354 µM and 1.68 µM | > 10 µM and 25.5 µM | 0.601 µM and 0.67 µM | > 10 µM and 14.8 µM | 0.545 µM and 0.53 µM | > 10 µM and 16.8 µM | 1.58 µM and 1.12 µM | > 10 µM and 20.2 µM | 0.492 µM and 0.561 µM | > 10 µM and 14.3 µM | 0.411 µM and 0.521 µM | > 10 µM and 37.4 µM | 0.37 µM and 0.57 µM | > 10 µM and 20.8 µM |
| CCOC(=O)c1sc2ncn(Cc3cccc(Cl)c3)c(=O)c2c1C | 13.1 µM | 25.7 µM | 12.2 µM | 24.5 µM | 14.6 µM | 27.8 µM | 14.7 µM | 27.9 µM | 16.2 µM | 29.7 µM | 15.1 µM | 28.4 µM | 13.1 µM | 25.8 µM | 15.1 µM | 29.1 µM |
| COC(=O)c1ccc(-c2nc3cc(F)c(F)cc3nc2C#N)cc1 | 26.4 µM | 50 µM | 9.8 µM | 21.1 µM | 0.948 µM | 1.79 µM | 9.12 µM | 17 µM | 4.71 µM | 32.3 µM | 4.65 µM | 13 µM | 11.7 µM | 26.6 µM | 14.9 µM | 46.7 µM |

— PubChem BioAssay (NCI)
